Values after ≈ are worked out from the molar mass of the structure shown. Read-outs that look alike come from different tables or passages of the source.

Assay [1] has as its system C. albicans S2 (FLU-resistant). Nature of the assay: microbe, parasite or virus in culture. The format is cell-based.
Assay [2] relates to C. albicans S2 (FLU-resistant). Nature of the assay: microbe, parasite or virus in culture. The format is cell-based. Particulars: read-out: MIC, colorimetric assay.
Where [3] appears, read: Candida albicans, 24 h, read-out: MIC, turbidity assay.
The mark [4] stands for this setting: Candida albicans, 48 h, read-out: MIC, turbidity assay.
Setting [5] is: Candida albicans, 48 h, read-out: Turbidity Assay IC50 C. albicans S2.

The IC50 is the point on the concentration scale where inhibition reaches its midpoint. For `CC1(C)C2CCC(Cn3[se]c4ccccc4c3=O)C1C2` (single isomer, unassigned; (-)) [CHB3], the MIC in assay [1] (setting [3]) is 50 µM (≈ 16.7 µg/mL); in assay [1] (setting [4]), 25 µM (≈ 8.36 µg/mL); in assay [2] (Candida albicans, 24 h), 25 µM (≈ 8.36 µg/mL); in assay [2] (Candida albicans, 48 h), 25 µM (≈ 8.36 µg/mL). In addition, the IC50 in assay [1] (setting [5]) was found to be 15.1 ± 0.2 µM.

With `C[C@@H]1[C@@H](n2[se]c3ccccc3c2=O)C[C@H]2C[C@@H]1C2(C)C` [CHB1], the MIC in assay [1] (setting [3]) and in assay [1] (setting [4]) was 3.1 µM (≈ 1.04 µg/mL) each time. The IC50 in assay [1] (setting [5]) was 1.8 ± 0.1 µM.

As to `C[C@H]1[C@H](n2[se]c3ccccc3c2=O)C[C@@H]2C[C@H]1C2(C)C` [CHB2], the IC50 in assay [1] (setting [5]) was determined as 6.2 ± 0.1 µM. The MIC in assay [2] (Candida albicans, 24 h) worked out at 6.3 µM (≈ 2.11 µg/mL); in assay [2] (Candida albicans, 48 h), 3.1 µM (≈ 1.04 µg/mL).

Turning to `C[C@H]1CC[C@@H]2[C@H]([C@@H]1n1[se]c3ccccc3c1=O)C2(C)C` [CHB4], the MIC was determined as 3.1 µM (≈ 1.04 µg/mL) in assay [1] (setting [3]); 3.1 µM (≈ 1.04 µg/mL) in assay [1] (setting [4]); 3.1 µM (≈ 1.04 µg/mL) in assay [2] (Candida albicans, 24 h); 3.1 µM (≈ 1.04 µg/mL) in assay [2] (Candida albicans, 48 h). For the same molecule, the IC50 in assay [1] (setting [5]) was 1.8 ± 0.1 µM.

Consider `C[C@@H]1C[C@H]2[C@@H](C[C@H]1n1[se]c3ccccc3c1=O)C2(C)C` [CHB5], for which the IC50 in assay [1] (setting [5]) came to 14.4 ± 0.5 µM.

Take `CC(C)[C@@H]1CC[C@@H](C)C[C@H]1n1[se]c2ccccc2c1=O` [CHB6, (−)-N-(1R,2S,5R)-menthyl-1,2-benzizoselenazol-3(2H)-one]: the MIC in assay [1] (setting [3]) was 3.1 µM (≈ 1.04 µg/mL); in assay [1] (setting [4]), 3.1 µM (≈ 1.04 µg/mL); in assay [2] (Candida albicans, 24 h), 6.3 µM (≈ 2.12 µg/mL); in assay [2] (Candida albicans, 48 h) it was 6.3 µM (≈ 2.12 µg/mL). The IC50 in assay [1] (setting [5]) turned out to be 1.8 ± 0.1 µM.

On to `O=c1c2ccccc2[se]n1-c1ccccc1` [EB, Ebselen, reference compound], for which the IC50 in assay [1] (Abs600nm at 48 h; read-out: Turbidity Assay IC50 C. albicans S2) was 14.3 ± 0.46 µM; in assay [1] (Candida albicans, 48 h, Abs600nm at 48 h; read-out: Turbidity Assay IC50 C. albicans S2), around 14 µM. Also, the MIC amounted to 25.0 µM (≈ 6.85 µg/mL) in assay [1] (C. albicans S2, 24 h; for FLU the lowest concentration causing 70% decrease in turbidity; read-out: MIC, turbidity assay); 25.0 µM (≈ 6.85 µg/mL) in assay [1] (C. albicans S2, 48 h; for FLU the lowest concentration causing 70% decrease in turbidity; read-out: MIC, turbidity assay); 25 µM (≈ 6.85 µg/mL) in assay [1] (Candida albicans, 24 h; read-out: MIC, turbidity assay); 25 µM (≈ 6.85 µg/mL) in assay [1] (Candida albicans, 48 h; read-out: MIC, turbidity assay); 25.0 µM (≈ 6.85 µg/mL) in assay [2] (C. albicans S2, 24 h, resazurin); 25.0 µM (≈ 6.85 µg/mL) in assay [2] (C. albicans S2, 48 h, resazurin). Besides, the MIC in assay [2] (Candida albicans, C. albicans S2, 24 h, resazurin) turned out to be 25 µM (≈ 6.85 µg/mL); in assay [2] (Candida albicans, C. albicans S2, 48 h, resazurin) it was 25 µM (≈ 6.85 µg/mL).
